{
  "source": "patent US5712151A",
  "about": "“Antifungal agent” (Merck & Co., Inc., priority 1996, dated 1998)",
  "format_in_all_cases": "cell-based",
  "key": {"Candida albicans (CA2)": {"system": "Candida albicans (CA2)", "test": "broth microdilution assay (MIC/MFC), Candida albicans (CA2)", "procedure": "(§1) In the microbroth dilution assay, microorganisms were selected by streaking a yeast culture on Sabouraud dextrose agar (SDA) incubating for 24-48 hours at 35°-37° C., thereafter selected 3 to 5 characteristic colonies and transferring to a fresh plate and incubating under similar conditions. From the regrowth, 3 to 5 colonies were selected and suspended in 10 milliliters of YM broth (Difco) and incubated for 4 hours at 35°-37° C. shaking at 225 rpm. The 4 hour broth cultures were adjusted optically to 86% transmission resulting in a concentration of 1-5×10^6 cfu/ml which was further diluted 1:100 in YNBD (yeast nitrogen base with 1% dextrose) to obtain a concentration of 1-5×10^4 cfu/ml for use as inocula. […]\n(§2) The plates containing the diluted compounds were then inoculated with 75 μl/well of the appropriate microorganism and incubated for 48 hours at 35°-37° C. with MIC (minimum inhibitory concentration) determinations carried out after 24 hours of incubation (except Cryptococcus strains which are read at 48 hours). […]\n(§3) After recording MICs at 24 hours, the microtiter plates were shaken gently to resuspend the cells. […] For Cryptococcus neoformans, SDA plates were inoculated at 48 hours after recording MICs and incubated 48 hours before reading the MFC. […]"}, "[1]": {"system": "Candida tropicalis (MY1124)", "test": "broth microdilution assay (MIC/MFC), Candida tropicalis (MY1124)", "procedure": "as §1, §2, §3"}, "[2]": {"system": "Candida tropicalis (MY1012)", "test": "broth microdilution assay (MIC/MFC), Candida tropicalis (MY1012)", "procedure": "as §1, §2, §3"}, "[3]": {"system": "Candida pseudotropicalis (MY2099)", "test": "broth microdilution assay (MIC/MFC), Candida pseudotropicalis (MY2099)", "conditions": "Kluyveromyces marxianus", "procedure": "as §1, §2, §3"}, "[4]": {"system": "Candida glabrata (MY1381)", "test": "broth microdilution assay (MIC/MFC), Candida glabrata (MY1381)", "conditions": "Nakaseomyces glabratus", "procedure": "as §1, §2, §3"}, "[5]": {"system": "Candida albicans (MY1055)", "test": "broth microdilution assay (MIC/MFC), Candida albicans (MY1055)", "procedure": "as §1, §2, §3"}, "panel of fungi": {"system": "panel of fungi", "test": "broth microdilution assay (MIC and MFC) against a panel of fungi", "conditions": "control compound amphotericin B", "procedure": "as §1, §2, §3"}, "Candida krusei": {"system": "Candida krusei", "test": "broth microdilution assay (MIC/MFC), Candida krusei", "conditions": "Pichia kudriavzevii", "procedure": "as §1, §2, §3"}, "[6]": {"system": "Candida guillermondii (MY1019)", "test": "broth microdilution assay (MIC/MFC), Candida guillermondii (MY1019)", "procedure": "as §1, §2, §3"}, "[7]": {"system": "Cryptococcus neoformans (MY2062)", "test": "broth microdilution assay (MIC/MFC), Cryptococcus neoformans (MY2062)", "conditions": "48 hours", "procedure": "as §1, §2, §3"}, "[8]": {"system": "Cryptococcus neoformans (MY2061)", "test": "broth microdilution assay (MIC/MFC), Cryptococcus neoformans (MY2061)", "conditions": "48 hours, 35°-37° C., read-out: Minimum Inhibitory Concentration (MIC)", "procedure": "as §1, §2, §3"}, "[9]": {"system": "Aspergillus fumigatus (MY5668)", "test": "broth microdilution assay (MIC), Aspergillus fumigatus (MY5668)", "conditions": "read-out: Minimum Inhibitory Concentration (MIC)", "procedure": "(§4) The test compound was dissolved at […] in 10% DMSO and diluted 2× into the first well to achieve a concentration of 256 μg/ml at 5% DMSO in the first well. Compounds are subsequently serially diluted 2× and cell suspension is added to each well resulting in an additional 2× dilution of compound. 75 μl of said solution is delivered to each well in column 1 of a 96-well, U-bottomed microtiter plate. The compounds in column 1 were then serially diluted two-fold to yield concentrations from 64 μg/ml to 0.03 μg/ml.\n(§5) The plates containing the diluted compounds were then inoculated with 75 μl/well of the appropriate microorganism and incubated for 48 hours at 35°-37° C. with MIC (minimum inhibitory concentration) determinations carried out after 24 hours of incubation (except Cryptococcus strains which are read at 48 hours). Growth and sterility controls for each organism and sterility checks for the compounds also were carried out."}, "[10]": {"system": "Candida albicans (CLY539)", "test": "broth microdilution assay (MIC/MFC), Candida albicans (CLY539)", "procedure": "as §1, §2, §3"}, "[11]": {"system": "Aspergillus fumigatus (MY4839)", "test": "broth microdilution assay (MIC), Aspergillus fumigatus (MY4839)", "conditions": "read-out: Minimum Inhibitory Concentration (MIC)", "procedure": "as §4, §5"}, "[12]": {"system": "filamentous fungi (Aspergillus flavus, Fusarium oxysporum, Ustilago zeae and the like)", "test": "agar plate inhibition zone test with filamentous fungi", "conditions": "methanol solutions on agar plates; 28° C. or 37° C., 24 hours", "procedure": "The compound is also useful for inhibiting the growth of filamentous fungi. Such use may be illustrated in the following tests with Aspergillus flavus, Fusarium oxysporum, Ustilago zeae and the like. Inocula for filamentous fungi are prepared by scraping the surface of stock plates maintained on potato dextrose agar with a moistened sterile dacron swab. The spores and mycelia are then suspended in 10 milliliters of sterile potato dextrose broth and adjusted to 70 percent transmission at 660 nm. The samples to be tested for production of antifungal agent are applied directly to the agar plates as methanol solutions. When the sample to be tested is crude broth, it may be centrifuged prior to application. The assay plates are then incubated at either 28° C. or 37° C. for 24 hours. Following incubation, the inhibition zones are measured. Growths are also noted as to appearance."}, "[13]": {"system": "Saccharomyces cerevisiae (MY2140)", "test": "broth microdilution assay (MIC/MFC), Saccharomyces cerevisiae (MY2140)", "procedure": "as §1, §2, §3"}, "[14]": {"system": "Candida parapsilosis (MY1010)", "test": "broth microdilution assay (MIC/MFC), Candida parapsilosis (MY1010)", "conditions": "Lodderomyces parapsilosis", "procedure": "as §1, §2, §3"}, "[15]": {"conditions": "24 hours, 35°-37° C., read-out: Minimum Inhibitory Concentration (MIC)"}, "[16]": {"conditions": "no growth or ≤4 colonies on SDA, read-out: Minimum Fungicidal Concentration (MFC)"}},
  "data": [
    {"smiles": "C=CC(CCCCC)C1=C(C(=O)C2C3C(C)CC(C(=O)OC)C(O)C3C(O)C2(O)C(=O)/C=C/C)C(=O)NC1=O", "note": "(centres unmarked) [Compound I]", "values": [
      {"measurement": "MIC", "setting": "Candida albicans (CA2); [15]", "result": 0.125, "unit": "µg/mL"},
      {"measurement": "MFC", "setting": "Candida albicans (CA2); [16]", "result": 0.25, "unit": "µg/mL"},
      {"measurement": "MIC", "setting": "[1]; [15]", "result": 4, "unit": "µg/mL"},
      {"measurement": "MFC", "setting": "[1]; [16]", "result": 8, "unit": "µg/mL"},
      {"measurement": "MIC", "setting": "[2]; [15]", "result": 1, "unit": "µg/mL"},
      {"measurement": "MFC", "setting": "[2]; [16]", "result": 2, "unit": "µg/mL"},
      {"measurement": "MIC", "setting": "[3]; [15]", "result": 2, "unit": "µg/mL"},
      {"measurement": "MFC", "setting": "[3]; [16]", "result": 4, "unit": "µg/mL"},
      {"measurement": "MIC", "setting": "[4]; [15]", "result": 16, "unit": "µg/mL"},
      {"measurement": "MFC", "setting": "[4]; [16]", "result": 32, "unit": "µg/mL"},
      {"measurement": "MIC", "setting": "[5]; [15]", "result": "< 0.03", "unit": "µg/mL"},
      {"measurement": "MFC", "setting": "[5]; [16]", "result": 0.06, "unit": "µg/mL"},
      {"measurement": "effectiveness against a panel of fungi (MIC and MFC) relative to amphotericin B", "setting": "panel of fungi", "result": "effective at concentrations comparable to an established antifungal agent, amphotericin B"},
      {"measurement": "MIC", "setting": "Candida krusei; [15]", "result": 0.06, "unit": "µg/mL"},
      {"measurement": "MFC", "setting": "Candida krusei; [16]", "result": 0.5, "unit": "µg/mL"},
      {"measurement": "MIC", "setting": "[6]; [15]", "result": 2, "unit": "µg/mL"},
      {"measurement": "MFC", "setting": "[6]; [16]", "result": 16, "unit": "µg/mL"},
      {"measurement": "MIC", "setting": "[7]; 35°-37° C., read-out: Minimum Inhibitory Concentration (MIC)", "result": "< 0.03", "unit": "µg/mL"},
      {"measurement": "MFC", "setting": "[7]; [16]", "result": "< 0.03", "unit": "µg/mL"},
      {"measurement": "MIC", "setting": "[8]", "result": "< 0.03", "unit": "µg/mL"},
      {"measurement": "MIC", "setting": "[9]", "result": 1, "unit": "µg/mL"},
      {"measurement": "MIC", "setting": "[10]; [15]", "result": 0.06, "unit": "µg/mL"},
      {"measurement": "MFC", "setting": "[10]; [16]", "result": 0.125, "unit": "µg/mL"},
      {"measurement": "MIC", "setting": "[11]", "result": "< 0.03", "unit": "µg/mL"},
      {"measurement": "inhibition of growth of filamentous fungi (inhibition zones)", "setting": "[12]", "result": "effectively inhibit growth of the fungal organisms"},
      {"measurement": "MIC", "setting": "[13]; Saccharomyces cerevisiae (MY2140), 24 hours, 35°-37° C., read-out: Minimum Inhibitory Concentration (MIC)", "result": 4, "unit": "µg/mL"},
      {"measurement": "MFC", "setting": "[13]; Saccharomyces cerevisiae, read-out: Minimum Fungicidal Concentration (MFC)", "result": 0.5, "unit": "µg/mL"},
      {"measurement": "MIC", "setting": "[14]; [15]", "result": "< 0.03", "unit": "µg/mL"},
      {"measurement": "MFC", "setting": "[14]; [16]", "result": "< 0.03", "unit": "µg/mL"}
    ]}
  ]
}
